Assay results reported in US11866430B2, “Naphthyridinone compounds useful as T cell activators” (priority 2018, dated 2024).
pIC50: −log10 of the molar value. Like-named read-outs stand apart in the source and are kept apart here.

Assays:
human DGKα [1] = target: T1, human DGKα (Homo sapiens (Human), UniProt P23743); assay: biochemical; conditions: detergent/lipid micelle substrate; read-out: DGKα IC50
Outline: (§1)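 Enzymes were baculovirus/Sf9 full-length human DGKα or DGKζ with His tag. The substrate was PS/DAG in octyl glucoside micelles, in MOPS pH 7.5 buffer with NaCl, MgCl2, CaCl2 and DTT.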

human DGKζ [2] = target: T2, human DGKζ (Homo sapiens (Human), UniProt Q13574); assay: DGKζ LIPGLO assay (extruded liposome substrate); assay type: biochemical
T2 sequence (Q13574 other isoform, or with tags, fused parts or gaps): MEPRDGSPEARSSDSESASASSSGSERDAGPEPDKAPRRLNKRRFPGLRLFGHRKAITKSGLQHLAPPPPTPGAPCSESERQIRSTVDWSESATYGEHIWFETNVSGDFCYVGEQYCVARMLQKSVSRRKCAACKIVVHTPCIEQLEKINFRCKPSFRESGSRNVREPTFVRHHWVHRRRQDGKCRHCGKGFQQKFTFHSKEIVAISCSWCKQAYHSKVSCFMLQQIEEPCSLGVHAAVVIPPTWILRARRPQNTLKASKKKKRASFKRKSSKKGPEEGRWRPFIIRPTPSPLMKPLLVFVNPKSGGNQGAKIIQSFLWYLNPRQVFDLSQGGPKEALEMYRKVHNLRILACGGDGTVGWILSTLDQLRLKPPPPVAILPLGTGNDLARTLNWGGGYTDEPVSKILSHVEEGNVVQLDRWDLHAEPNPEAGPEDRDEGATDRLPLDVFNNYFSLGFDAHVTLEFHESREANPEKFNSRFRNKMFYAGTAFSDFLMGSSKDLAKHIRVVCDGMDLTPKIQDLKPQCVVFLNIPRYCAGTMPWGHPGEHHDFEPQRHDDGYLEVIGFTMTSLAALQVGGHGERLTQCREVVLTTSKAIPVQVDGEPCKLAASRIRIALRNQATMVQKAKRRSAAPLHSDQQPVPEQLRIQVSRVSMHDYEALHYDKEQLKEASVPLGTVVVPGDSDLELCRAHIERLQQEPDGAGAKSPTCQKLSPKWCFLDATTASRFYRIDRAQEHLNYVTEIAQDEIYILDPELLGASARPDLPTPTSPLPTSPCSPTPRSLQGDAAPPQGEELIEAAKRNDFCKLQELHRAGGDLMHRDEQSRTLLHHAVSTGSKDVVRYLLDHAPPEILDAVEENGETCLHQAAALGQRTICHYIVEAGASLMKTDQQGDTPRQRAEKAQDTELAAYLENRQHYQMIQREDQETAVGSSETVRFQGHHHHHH
Outline: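 Sf9-derived DGKζ was premixed 10 min with PC/DAG/PS liposomes (100 nm extruded) in MOPS pH 7.5 buffer containing NaCl, MgCl2, CaCl2 and DTT.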

[3] = system: pre-activated CD4 T cells and Raji cells; assay: Raji CD4 T Cell IL2 Assay; assay type: cell-based
human DGKζ [4] = target: T2, human DGKζ; assay: DGKζ assay (detergent/lipid micelle substrate); assay type: biochemical
Outline: as §1

human DGKα [5] = target: T1, human DGKα; assay: DGKα LIPGLO assay (extruded liposome substrate); assay type: biochemical
Outline: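 Human full-length DGKα, His-tagged and produced in Sf9 cells, assayed at 20 nM (4× stock) on extruded liposomes of PS, 0.25 mM DAG and 2.75 mM PC, preincubated 10 min. Reaction started with 300 μM ATP (stock) and ran 1 h in MOPS pH 7.5/MgCl2/CaCl2/DTT buffer.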

[6] = extruded liposome substrate, read-out: DGKζ LIPGLO IC50
[7] = detergent/lipid micelle substrate, read-out: DGKζ IC50
[8] = DGKζ LIPGLO IC50, extruded liposome substrate

T1 sequence (P23743 other isoform, or with tags, fused parts or gaps): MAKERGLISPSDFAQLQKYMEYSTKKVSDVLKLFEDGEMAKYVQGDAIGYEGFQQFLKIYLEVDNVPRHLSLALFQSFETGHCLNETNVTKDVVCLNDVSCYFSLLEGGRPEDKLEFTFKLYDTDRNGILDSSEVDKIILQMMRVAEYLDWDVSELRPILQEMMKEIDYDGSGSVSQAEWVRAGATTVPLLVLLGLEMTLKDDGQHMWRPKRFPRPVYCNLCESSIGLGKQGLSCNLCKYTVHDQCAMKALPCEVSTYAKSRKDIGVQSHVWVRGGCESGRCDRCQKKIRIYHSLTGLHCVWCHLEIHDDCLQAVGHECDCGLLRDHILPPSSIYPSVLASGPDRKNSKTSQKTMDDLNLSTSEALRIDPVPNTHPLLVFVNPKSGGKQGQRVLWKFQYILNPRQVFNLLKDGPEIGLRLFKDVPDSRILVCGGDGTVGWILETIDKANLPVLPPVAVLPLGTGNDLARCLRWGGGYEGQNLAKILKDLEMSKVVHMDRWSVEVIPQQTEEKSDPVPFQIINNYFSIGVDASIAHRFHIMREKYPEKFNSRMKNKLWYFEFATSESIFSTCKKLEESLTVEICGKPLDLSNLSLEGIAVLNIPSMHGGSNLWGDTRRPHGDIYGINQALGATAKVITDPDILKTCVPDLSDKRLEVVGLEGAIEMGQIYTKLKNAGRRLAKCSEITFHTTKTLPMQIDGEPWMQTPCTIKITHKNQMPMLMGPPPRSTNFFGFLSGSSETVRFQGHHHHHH

Structure (SMILES): Cn1c(=O)c([N+](=O)[O-])c(N2CCN(C(c3ccc(F)cc3)c3ccccc3O)CC2)c2nc(C#N)ccc21 (single isomer, unassigned) [Example 99, 8-(4-((4-fluorophenyl)(2-hydroxyphenyl)methyl)piperazin-1-yl)-5-methyl-7-nitro-6-oxo-5,6-dihydro-1,5-naphthyridine-2-carbonitrile]
- pIC50 (human DGKα [1]): 6.39
- pIC50 (human DGKζ [2]; [6]): 7.40
- pIC50 [3]: 8.03
- pIC50 (human DGKζ [4]; [7]): 6.17
- pIC50 (human DGKα [5]): 6.14

Structure (SMILES): COc1cc(F)ccc1C(c1ccc(F)cc1)N1CCN(c2c([N+](=O)[O-])c(=O)n(C)c3ccc(C#N)nc23)CC1 (single isomer, unassigned) [Example 125, 8-(4-((4-fluoro-2-methoxyphenyl)(4-fluorophenyl)methyl)piperazin-1-yl)-5-methyl-7-nitro-6-oxo-5,6-dihydro-1,5-naphthyridine-2-carbonitrile]
- pIC50 (human DGKα [1]): 5.37
- pIC50 (human DGKζ [2]; [8]): 5.64
- pIC50 ([3]; Homo sapiens, Raji): 7.64
- pIC50 (human DGKζ [4]; DGKζ IC50, detergent/lipid micelle substrate): 5.10
- pIC50 (human DGKα [5]): 4.96

Structure (SMILES): C#CCn1c(=O)c([N+](=O)[O-])c(N2CCN(C(c3ccc(F)cc3)c3ccc(F)cc3OC)CC2)c2nc(C#N)ccc21 (single isomer, unassigned) [Example 127, 8-(4-((4-fluoro-2-methoxyphenyl)(4-fluorophenyl)methyl)piperazin-1-yl)-7-nitro-6-oxo-5-(prop-2-yn-1-yl)-5,6-dihydro-1,5-naphthyridine-2-carbonitrile]
- pIC50 (human DGKα [1]): 5.38
- pIC50 (human DGKζ [2]; [6]): 7.52
- pIC50 [3]: 8.19
- pIC50 (human DGKζ [4]; [7]): 6.60
- pIC50 (human DGKα [5]): 5.54

Structure (SMILES): C#CCn1c(=O)c([N+](=O)[O-])c(N2CCN(C(c3ccc(F)cc3)c3ccc(F)cc3OC)CC2)c2nc(C#N)ccc21 (single isomer, unassigned) [Example 128, 8-(4-((4-fluoro-2-methoxyphenyl)(4-fluorophenyl)methyl)piperazin-1-yl)-7-nitro-6-oxo-5-(prop-2-yn-1-yl)-5,6-dihydro-1,5-naphthyridine-2-carbonitrile]
- pIC50 (human DGKα [1]): 4.68
- pIC50 (human DGKζ [2]; [6]): 7.32
- pIC50 [3]: 7.00
- pIC50 (human DGKζ [4]; [7]): 5.82
- pIC50 (human DGKα [5]): 4.74

Structure (SMILES): C#CCn1c(=O)c([N+](=O)[O-])c(N2CCN(C(CC)c3ccc(F)cc3)CC2)c2nc(C#N)ccc21 (single isomer, unassigned) [Example 140, 8-{4-[1-(4-fluorophenyl)propyl]piperazin-1-yl}-7-nitro-6-oxo-5-(prop-2-yn-1-yl)-5,6-dihydro-1,5-naphthyridine-2-carbonitrile]
- pIC50 (human DGKα [1]): 6.19
- pIC50 (human DGKζ [2]; [6]): 6.89
- pIC50 ([3]; Homo sapiens, Raji): 8.22
- pIC50 (human DGKζ [4]; [7]): 6.22
- pIC50 (human DGKα [5]): 5.57

Structure (SMILES): CC(c1ccc(F)cc1)N1CCN(c2c(C#N)c(=O)n(CC3CC3)c3ccc(Br)nc23)CC1 (single isomer, unassigned) [Example 164, 6-bromo-1-(cyclopropylmethyl)-4-(4-(1-(4-fluorophenyl)ethyl)piperazin-1-yl)-2-oxo-1,2-dihydro-1,5-naphthyridine-3-carbonitrile]
- pIC50 (human DGKα [1]): < 3.62
- pIC50 (human DGKζ [2]; [8]): 4.23
- pIC50 [3]: 5.59
- pIC50 (human DGKζ [4]; read-out: DGKζ IC50, detergent/lipid micelle substrate): < 3.62
- pIC50 (human DGKα [5]): 4.09

Structure (SMILES): CC(C)C(c1ccc(F)cc1)N1CCN(c2c(C#N)c(=O)n(C)c3ccc(Cl)nc23)CC1 (single isomer, unassigned) [Example 316, 6-chloro-4-{4-[1-(4-fluorophenyl)-2-methylpropyl]piperazin-1-yl}-methyl-2-oxo-1,2-dihydro-1,5-naphthyridine-3-carbonitrile]
- pIC50 (human DGKα [1]): 6.40
- pIC50 (human DGKζ [2]; [6]): < 3.62
- pIC50 [3]: 6.39
- pIC50 (human DGKζ [4]; [7]): < 3.62
- pIC50 (human DGKα [5]): 6.60

Structure (SMILES): Cn1c(=O)c([N+](=O)[O-])c(N2CCN(C(c3ccc(F)cc3)c3ccc(F)cc3)CC2)c2ncccc21 [Example 3, 4-(4-(bis(4-fluorophenyl)methyl)piperazin-1-yl)-1-methyl-3-nitro-1,5-naphthyridin-2(1H)-one]
- pIC50 (human DGKα [1]): 5.68
- pIC50 (human DGKζ [2]; [6]): 5.64
- pIC50 ([3]; Homo sapiens, Raji): 6.51
- pIC50 (human DGKζ [4]; [7]): < 3.62
- pIC50 (human DGKα [5]): 5.42

Structure (SMILES): Cn1c(=O)c(C#N)c(N2CCN(C(c3ccc(F)cc3)C3CC3)CC2)c2nc(Br)ccc21 (stereo not shown) [Example 35, 6-bromo-4-{4-[cyclopropyl(4-fluorophenyl)methyl]piperazin-1-yl}-1-methyl-2-oxo-1,2-dihydro-1,5-naphthyridine-3-carbonitrile]
- pIC50 (human DGKα [1]): 6.85
- pIC50 (human DGKζ [2]; [6]): 4.09
- pIC50 ([3]; Homo sapiens, Raji): 6.68
- pIC50 (human DGKζ [4]; [7]): < 3.62
- pIC50 (human DGKα [5]): 6.00

Structure (SMILES): CCn1ccc2c(CN3CCN(c4c([N+](=O)[O-])c(=O)n(C)c5ccc(Br)nc45)CC3)cccc21 [Example 54, 6-bromo-4-(4-((1-ethyl-H-indol-4-yl)methyl)piperazin-1-yl)-1-methyl-3-nitro-1,5-naphthyridin-2(1H)-one]
- pIC50 (human DGKα [1]): 6.09
- pIC50 (human DGKζ [2]; [6]): 5.89
- pIC50 ([3]; Homo sapiens, Raji): 7.20
- pIC50 (human DGKζ [4]; [7]): 5.14
- pIC50 (human DGKα [5]): 5.51

Structure (SMILES): C#CCn1c(=O)c(C#N)c(N2CCN(Cc3ccccc3O)CC2)c2nc(Br)ccc21 [Example 65, 6-bromo-4-(4-(2-hydroxybenzyl)piperazin-1-yl)-2-oxo-1-(prop-2-yn-1-yl)-1,2-dihydro-1,5-naphthyridine-3-carbonitrile]
- pIC50 (human DGKα [1]): 6.54
- pIC50 (human DGKζ [2]; [6]): 5.43
- pIC50 ([3]; Homo sapiens, Raji): 8.26
- pIC50 (human DGKζ [4]; [7]): 4.70
- pIC50 (human DGKα [5]): 6.29

Structure (SMILES): C#CCn1c(=O)c(C#N)c(N2CCN(Cc3ccc(C)cc3O)CC2)c2nc(Br)ccc21 [Example 66, 6-bromo-4-(4-(2-hydroxy-4-methylbenzyl)piperazin-1-yl)-2-oxo-1-(prop-2-yn-1-yl)-1,2-dihydro-1,5-naphthyridine-3-carbonitrile]
- pIC50 (human DGKα [1]): 7.08
- pIC50 (human DGKζ [2]; [6]): 5.77
- pIC50 ([3]; Homo sapiens, Raji): 7.32
- pIC50 (human DGKζ [4]; [7]): 4.89
- pIC50 (human DGKα [5]): 6.64

Structure (SMILES): C#CCn1c(=O)c(C#N)c(N2CCN(Cc3ccc(F)cc3O)CC2)c2nc(Br)ccc21 [Example 67, 6-bromo-4-(4-(4-fluoro-2-hydroxybenzyl)piperazin-1-yl)-2-oxo-1-(prop-2-yn-1-vi)-1,2-dihydro-1,5-naphthyridine-3-carbonitrile]
- pIC50 (human DGKα [1]): 6.89
- pIC50 (human DGKζ [2]; [6]): 4.92
- pIC50 ([3]; Homo sapiens, Raji): 8.18
- pIC50 (human DGKζ [4]; [7]): 4.89
- pIC50 (human DGKα [5]): 5.32

Structure (SMILES): C#CCn1c(=O)c([N+](=O)[O-])c(N2CCN(C(c3ccc(F)cc3)c3ccc(F)cc3)CC2)c2nc(C#N)ccc21 [Example 118, 8-(4-(bis(4-fluorophenyl)methyl)piperazin-1-yl)-7-nitro-6-oxo-5-(prop-2-yn-1-yl)-5,6-dihydro-1,5-naphthyridine-2-carbonitrile]
- pIC50 (human DGKα [1]): 5.38
- pIC50 (human DGKζ [2]; [6]): 7.21
- pIC50 ([3]; Homo sapiens, Raji): 7.74
- pIC50 (human DGKζ [4]; [7]): 6.64
- pIC50 (human DGKα [5]): 5.89

Structure (SMILES): CC(c1ccc(F)cc1)N1CCN(c2c([N+](=O)[O-])c(=O)n(CC#N)c3ccc(C#N)nc23)CC1 (stereo not shown) [Example 151, 5-(cyanomethyl)-8-(4-(1-(4-fluorophenyl)ethyl)piperazin-1-yl)-7-nitro-6-oxo-5,6-dihydro-1,5-naphthyridine-2-carbonitrile]
- pIC50 (human DGKα [1]): 4.42
- pIC50 (human DGKζ [2]; [6]): 5.51
- pIC50 ([3]; Homo sapiens, Raji): 6.06
- pIC50 (human DGKζ [4]; [7]): 4.57
- pIC50 (human DGKα [5]): 5.14

Structure (SMILES): CC(c1ccc(F)cc1)N1CCN(c2c(C#N)c(=O)n(CC#N)c3ccc(Br)nc23)CC1 (stereo not shown) [Example 154, 6-bromo-1-(cyanomethyl)-4-(4-(1-(4-fluorophenyl)ethyl)piperazin-1-yl)-2-oxo-1,2-dihydro-1,5-naphthyridine-3-carbonitrile]
- pIC50 (human DGKα [1]): 4.35
- pIC50 (human DGKζ [2]; [6]): 4.14
- pIC50 ([3]; Homo sapiens, Raji): 6.06
- pIC50 (human DGKζ [4]; [7]): < 3.62
- pIC50 (human DGKα [5]): 4.09

Structure (SMILES): CCC(c1ccc(F)cc1)N1CCN(c2c(C#N)c(=O)n(CC#N)c3ccc(Br)nc23)CC1 (stereo not shown) [Example 155, 6-bromo-1-(cyanomethyl)-4-(4-(1-(4-fluorophenyl)propyl)piperazin-1-yl)-2-oxo-1,2-dihydro-1,5-naphthyridine-3-carbonitrile]
- pIC50 (human DGKα [1]): 4.62
- pIC50 (human DGKζ [2]; [6]): 4.20
- pIC50 ([3]; Homo sapiens, Raji): 5.80
- pIC50 (human DGKζ [4]; [7]): 3.64
- pIC50 (human DGKα [5]): 4.15

Structure (SMILES): N#CCCCn1c(=O)c([N+](=O)[O-])c(N2CCN(C(c3ccccc3)c3ccccc3)CC2)c2ncccc21 [Example 183, 4-(4-(4-benzhydrylpiperazin-1-yl)-3-nitro-2-oxo-1,5-naphthyridin-1(2H)-yl)butanenitrile]
- pIC50 (human DGKα [1]): 4.28
- pIC50 (human DGKζ [2]; [6]): 4.68
- pIC50 ([3]; Homo sapiens, Raji): 5.49
- pIC50 (human DGKζ [4]; [7]): < 3.62
- pIC50 (human DGKα [5]): < 3.62

Structure (SMILES): Cn1c(=O)c(C#N)c(N2CCN(Cc3ccc(F)cc3O)CC2)c2nc(Br)ccc21 [Example 192, 6-bromo-4-(4-(4-fluoro-2-hydroxybenzyl)piperazin-1-yl)-1-methyl-2-oxo-1,2-dihydro-1,5-naphthyridine-3-carbonitrile]
- pIC50 (human DGKα [1]): 7.08
- pIC50 (human DGKζ [2]; [6]): 5.09
- pIC50 ([3]; Homo sapiens, Raji): 6.70
- pIC50 (human DGKζ [4]; [7]): < 3.62
- pIC50 (human DGKα [5]): 7.32

Structure (SMILES): Cn1c(=O)c(C#N)c(N2CCN(Cc3ccc(F)cc3O)CC2)c2nc(Cl)ccc21 [Example 193, 6-chloro-4-(4-(4-fluoro-2-hydroxybenzyl)piperazin-1-yl)-1-methyl-2-oxo-1,2-dihydro-1,5-naphthyridine-3-carbonitrile]
- pIC50 (human DGKα [1]): 6.66
- pIC50 (human DGKζ [2]; [6]): 5.19
- pIC50 ([3]; Homo sapiens, Raji): 6.89
- pIC50 (human DGKζ [4]; [7]): < 3.62
- pIC50 (human DGKα [5]): 7.05
